Where “and” joins values, the source holds several entries; their conditions need not be identical. Equal entries are not always repeated.
What was measured:
[1] = Tolerability in mice: clinical signs of toxicity, body weight, clinical scoring; settings: mouse, in vivo
Method: (§1) Mice were treated with a mixture comprising 93% mono(N^γ-bis-sulfomethyl) Polymyxin E1 or CMS for 5 days and were monitored for clinical signs of toxicity and urine concentrations of KIM-1. […] The normal range of KIM-1 in mouse urine, as stated in the ELISA kit instruction, is 456-8048 pg/ml.
(§2) The mixtures were received as dry powder and were dissolved in the vials in sterile saline to the concentration stated in table 1, immediately prior to injection.
(§3) Once a day for 5 days, mice were treated subcutaneously in the neck region with 0.2 ml corresponding to the doses stated in Table 1. The dosing was based on a mean weight of 28 g.
All the tested mixtures were well tolerated by mice as determined by body weight and clinical scoring.

[2] = test system: KIM-1 (kidney injury molecule-1); assay: Nephrotoxicity in mice, urinary KIM-1 by ELISA; format: in vivo; settings: 80 mg/kg subcutaneously once a day for 5 days; individual mice
Method: Nephrotoxicity was measured using KIM-1 (kidney injury molecule-1) as a biomarker of acute tubular necrosis.
as §1, §2, §3
Urine samples were collected at 24 hrs after the 2nd dosing and 4 hrs after the 5th dosing. Samples were stored at −80° C. until analysed for KIM-1 concentrations
Urine samples were thawed, centrifuged for 5 min at 2000 g and diluted ×50 prior to performing the ELISA according the instruction in the Quantikine ELISA mouse TIM-1/KIM-1/HAVCR Immunoassay kit.

[3] = test system: Pseudomonas aeruginosa (strain PAX11045); assay: Mouse model with pulmonary infection of Pseudomonas aeruginosa; format: in vivo; set-up: key to Clinical score at T = 19 / Clinical score at T = 22: 0: healthy; 1: minor clinical signs of infection and inflammation like piloerection in the skin, distress and social withdrawal; 2: moderate signs of infection like changed body position, changes in pattern of movement, lack of curiosity or changed activity.; 3: severe signs of infection like stiff movements, forced ventilation,; 4: severe pain, mouse was sacrificed immediately to minimize suffering; 5: The mouse was dead; settings: dose 10 mg/kg, peritoneal
Method: A mouse model with pulmonary infections of Pseudomonas aeruginosa (strain PAX11045) were treated with peritoneal administration of Polymyxin E1, CMS E1 and mono bis-sulfomethylated Polymyxin E1. CFU is the calculated number of colony forming units in the lung tissue after 22 hours except for the non-treatment group of mice.

Substance: Colistimethate sodium [CMS]
- clinical signs of toxicity [1]: no clinical signs of toxicity

Substance: Gentamicin
- Urinary KIM-1 concentrations after 5 doses [2]: 12850 pg/mL and 5900 pg/mL and 5750 pg/mL

Substance: Polymyxin E1 [Polymyxin-E1]
- Clinical score at T = 19 ([3]; individual mice): 3 (6×) and 2
- Clinical score at T = 22 ([3]; individual mice): 4 (2×) and 2 and 3 (4×)
- mean log10 CFU ([3]; lung tissue after 22 hours): 4.43 log10 CFU
- log10 CFU lung ([3]; lung tissue after 22 hours, individual mice, 10 mg/kg): 5.65 log10 CFU and 4.08 log10 CFU and 6.06 log10 CFU and 4.05 log10 CFU and 3.78 log10 CFU and 3.70 log10 CFU and 3.72 log10 CFU

From patent US10711040B2, “Low substituted polymyxins and compositions thereof” (priority 2014, dated 2020)
